# Experimental data reported in patent US20100184685A1 (priority 2009, published 2010).
# Several values for one entry are separate records, joined by “and”; a condition that tells them apart may be missing. Identical values can stand only once.
# Columns and labels:
# post-operative pain [1] = system: post-operative pain; parameters: species or system human; details: in vivo
# post-operative pain [2] = details: in vivo
smiles,measurement,setting,value
CCCCN1CCCCC1C(=O)Nc1c(C)cccc1C (stereo not shown) [Marcaine],pain level on the visual analog pain scale,post-operative pain [1],5-6 /10 and 4 /10
same,pain on the visual analog pain scale,post-operative pain [2],3-4 /10
same,requirement for patient controlled analgesic (PCA) administration during hospitalization,post-operative pain [2],did not require any patient controlled analgesic (PCA) administration
same,signs of infection at the previous infusion catheter sites,post-operative pain [2],without signs of infection
